± gives the expanded uncertainty stated by the source.
Key:
[1] = Liquid, Rate of evaporation
[2] = Boiling temperature at pressure P; conditions: 1.1 kPa, Liquid

## CCCCCCCCCC(=O)OCC(O)CO (stereo not drawn) [2,3-dihydroxypropyl decanoate]
[1]; 478.69 K
  vapor or sublimation pressure: 1.1 ± 0.2 kPa
[1]; 482.79 K
  vapor or sublimation pressure: 1.5 ± 0.2 kPa
[1]; 491.77 K
  vapor or sublimation pressure: 2.5 ± 0.3 kPa
[1]; 497.13 K
  vapor or sublimation pressure: 3.1 ± 0.6 kPa
[1]; 498.31 K
  vapor or sublimation pressure: 3.6 ± 0.4 kPa
[1]; 501.31 K
  vapor or sublimation pressure: 4.3 ± 0.4 kPa
[1]; 511.21 K
  vapor or sublimation pressure: 6.8 ± 0.7 kPa
[1]; 519.1 K
  vapor or sublimation pressure: 10.1 ± 1 kPa
[1]; 524.41 K
  vapor or sublimation pressure: 13.2 ± 1.2 kPa

## CCCCCCCC(=O)OCC(O)CO (stereo not drawn) [2,3-dihydroxypropyl octanoate]
[1]; 462.66 K
  vapor or sublimation pressure: 1.1 ± 0.1 kPa
[1]; 468.91 K
  vapor or sublimation pressure: 1.5 ± 0.2 kPa
[1]; 479.02 K
  vapor or sublimation pressure: 2.5 ± 0.2 kPa
[1]; 484.24 K
  vapor or sublimation pressure: 3.1 ± 0.4 kPa
[1]; 485.63 K
  vapor or sublimation pressure: 3.6 ± 0.3 kPa
[1]; 490.19 K
  vapor or sublimation pressure: 4.3 ± 0.4 kPa
[1]; 498.91 K
  vapor or sublimation pressure: 6.8 ± 0.6 kPa
[1]; 507.96 K
  vapor or sublimation pressure: 10.1 ± 0.9 kPa
[1]; 514.64 K
  vapor or sublimation pressure: 13.2 ± 1.2 kPa

## CCCCCCCCCC(=O)OCC(O)COC(=O)CCCCCCCCC [2-hydroxypropane-1,3-diyl bis(decanoate)]
[1]; 535.66 K
  vapor or sublimation pressure: 1 ± 0.1 kPa
[1]; 538.32 K
  vapor or sublimation pressure: 1.1 ± 0.2 kPa
[1]; 544.06 K
  vapor or sublimation pressure: 1.5 ± 0.2 kPa
[1]; 554.25 K
  vapor or sublimation pressure: 2.5 ± 0.2 kPa
[1]; 558.74 K
  vapor or sublimation pressure: 3.1 ± 0.3 kPa
[1]; 562.37 K
  vapor or sublimation pressure: 3.6 ± 0.4 kPa
[1]; 565.39 K
  vapor or sublimation pressure: 4.3 ± 0.5 kPa

## Cc1c(C)c2c(c(C)c1O)CC[C@@](C)(CCC[C@H](C)CCC[C@H](C)CCCC(C)C)O2 [(+)-α-tocopherol]
[2]; Rate of evaporation
  Boiling temperature at pressure P: 276.11 ± 8.4 °C

## Cc1cc(O)c(C)c2c1O[C@](C)(CCC[C@H](C)CCC[C@H](C)CCCC(C)C)CC2 [(R,R,R)-β-tocopherol]
[2]; DSC
  Boiling temperature at pressure P: 279.58 ± 2.9 °C

## Cc1c(O)cc2c(c1C)O[C@](C)(CCC[C@H](C)CCC[C@H](C)CCCC(C)C)CC2 [(R,R,R)-γ-tocopherol]
[2]; DSC
  Boiling temperature at pressure P: 274.70 ± 4.7 °C

## CCCCCCCC(=O)OCC(O)COC(=O)CCCCCCC [glycerol 1,3-dicaprylate]
[1]; 511.93 K
  vapor or sublimation pressure: 1.1 ± 0.2 kPa
[1]; 517.23 K
  vapor or sublimation pressure: 1.5 ± 0.2 kPa
[1]; 529.42 K
  vapor or sublimation pressure: 2.5 ± 0.2 kPa
[1]; 533.36 K
  vapor or sublimation pressure: 3.1 ± 0.3 kPa
[1]; 538.14 K
  vapor or sublimation pressure: 3.6 ± 0.3 kPa
[1]; 541.18 K
  vapor or sublimation pressure: 4.3 ± 0.4 kPa
[1]; 552.59 K
  vapor or sublimation pressure: 6.8 ± 0.5 kPa
[1]; 560.35 K
  vapor or sublimation pressure: 10.1 ± 0.9 kPa
[1]; 567.73 K
  vapor or sublimation pressure: 13.2 ± 1.2 kPa

## Cc1cc(O)cc2c1OC(C)(CCCC(C)CCCC(C)CCCC(C)C)CC2 (stereo not drawn) [ω-tocopherol]
[2]; DSC
  Boiling temperature at pressure P: 279.5 ± 6.6 °C
